Experimental findings from patent US20040127518A1, “Modulation of anxiety through blockade of anandamide hydrolysis” (priority 2002, published 2004) are described below.

Where a name gives a salt, the structure may show the parent alone. Read-outs that look alike come from different tables or passages of the source. Bounds are passed on as bounds.

In the test the target is T1, FAAH (Rattus norvegicus, UniProt P97612).
T1 sequence (P97612 1-579): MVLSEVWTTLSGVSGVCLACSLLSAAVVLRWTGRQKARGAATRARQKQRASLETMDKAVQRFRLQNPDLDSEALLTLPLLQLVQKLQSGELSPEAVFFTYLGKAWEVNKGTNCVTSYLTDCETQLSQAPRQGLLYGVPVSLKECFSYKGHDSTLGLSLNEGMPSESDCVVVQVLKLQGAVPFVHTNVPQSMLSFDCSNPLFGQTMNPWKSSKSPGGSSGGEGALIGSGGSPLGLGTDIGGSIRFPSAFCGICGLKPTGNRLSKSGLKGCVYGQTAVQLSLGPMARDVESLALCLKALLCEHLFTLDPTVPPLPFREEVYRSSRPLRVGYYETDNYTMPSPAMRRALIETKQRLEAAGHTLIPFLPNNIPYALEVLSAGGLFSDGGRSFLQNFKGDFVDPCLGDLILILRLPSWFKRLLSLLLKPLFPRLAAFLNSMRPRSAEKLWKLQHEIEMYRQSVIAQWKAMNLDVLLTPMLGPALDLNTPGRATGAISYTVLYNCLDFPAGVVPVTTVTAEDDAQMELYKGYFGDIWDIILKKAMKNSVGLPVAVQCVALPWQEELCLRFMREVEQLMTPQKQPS
Kind of test: biochemical. Format: biochemical. Also on record: from tissue; host or cells: rat brain (membrane fraction of homogenate; Wistar rats).

The mark [1] stands for this setting: Inhibition of Amidohydrolase IC50(μM).
Setting [2] is: Table 4, FAAH IC50, read-out: Inhibition of Amidohydrolase IC50.
Where [3] appears, read: Table 5, rat brain membranes, [3H]anandamide, read-out: IC50 (nM) ± S.E.M.
Setting [4] is: Table 6, meta-substituted derivatives, read-out: pIC50 obsd (converted).

Under setting [1], `CCc1ccc2cc(OC(=O)NC3CCCCC3)ccc2c1` [PL#28] displayed an IC50 of 3 µM.

As for `O=C(NC1CCCCC1)Oc1ccc([N+](=O)[O-])c(-c2ccccc2)c1` [PL#58], the IC50 under setting [2] is over 30 µM.

Under setting [1], `O=C(NC1CCCCC1)Sc1ccc2ccccc2c1` [PL#52] returned an IC50 of 15 µM.

Regarding `CC(=O)c1cccc(-c2cccc(OC(=O)NC3CCCCC3)c2)c1` [Compound 3s], the IC50 by setting is: under setting [3], 0.0091 ± 0.0005 µM; under setting [4], 0.00912 µM.

Regarding `CCCCNC(=O)Nc1cccc2ccccc12` [PL#23], the IC50 under setting [2] is over 30 µM.

Under setting [1], `O=C(NC1CCCCC1)Oc1cccc(-c2ccc(C(F)(F)F)cc2)c1` [PL#38] yielded an IC50 of 1.6 µM.

In the case of `CC1=CC(C)(C)N(C(=O)NC2CCCCC2)c2cc(C)c(C)cc21` [PL#19], the IC50 under setting [2] was over 30 µM.

With `Nc1ccc(-c2ccccc2)cc1OC(=O)NC1CCCCC1` [PL#61], the IC50 under setting [2] is over 30 µM.

For `O=C(NC1CCCCC1)Oc1cccc(-c2ccc(F)cc2)c1` [Compound 3e], under setting [3], the IC50 turned out to be 0.065 ± 0.014 µM. The “inhibition of FAAH activity (in words)” value (rat brain membranes) is reported as “comparable IC50 value”.

For the molecule `Cc1cccc(-c2cccc(OC(=O)NC3CCCCC3)c2)c1` [Compound 3h], the IC50 is, setting by setting: under setting [3], 0.0617 ± 0.019 µM; under setting [4], 0.0617 µM. Further, the “inhibition of FAAH activity (in words)” value (rat brain membranes) is “as potent as the parent compound”.

As to `O=C(NC1CCCCC1)Oc1cccc(-c2cccc(C(F)(F)F)c2)c1` [Compound 3g], the IC50 by setting is: (IC50 (nM) ± S.E.M.) 0.146 ± 0.016 µM; (pIC50 obsd) 0.145 µM.

`O=C(NC(=O)c1ccc(OC(=O)NC2CCCCC2)cc1-c1ccccc1)NC1CCCCC1` [PL#50]: the IC50 under setting [2] was 3.1 µM.

For the molecule `CCCc1cccc(-c2cccc(OC(=O)NC3CCCCC3)c2)c1` [Compound 3p], the IC50 by setting is: (IC50 (nM) ± S.E.M.) 0.11 ± 0.016 µM; (pIC50 obsd) 0.11 µM.

Regarding `O=C(NC(=O)c1ccc(-c2cccc(OC(=O)NC3CCCCC3)c2)cc1)NC1CCCCC1` [PL#42], the IC50 under setting [1] was about 30 µM.

For the molecule `O=C(NC1CCCCC1)Oc1ccc2cccc(Br)c2c1` [PL#27], the IC50 under setting [2] amounted to 0.17 µM.

As to `CCNC(=O)OCC12CC3CC(CC(C3)C1)C2` [#31], under setting [2], the IC50 is over 30 µM.

For the molecule `O=C(NC1CCCCC1)Oc1cccc(-c2ccccc2)c1` [URB524, cyclohexylcarbamic acid biphenyl-3-yl ester], the IC50 (Table 1, rat brain membranes, mean of at least three experiments, read-out: IC50) was found to be 0.063 µM; the IC50 under setting [2] came out at 0.06 µM; the IC50 under setting [3] is 0.063 ± 0.009 µM; the IC50 (rat brain membranes, read-out: IC50) was found to be 0.063 ± 0.009 µM. Besides, the pIC50 obsd (Table 6, meta-substituted derivatives) is listed as 7.20.

With `Nc1cccc(-c2cccc(OC(=O)NC3CCCCC3)c2)c1` [Compound 3j], the “inhibition of FAAH activity (in words)” value is reported as “as potent as the parent compound”. Under “IC50 (nM) ± S.E.M.”, this molecule displayed an IC50 of 0.0646 ± 0.009 µM. Under “pIC50 obsd”, this molecule gave an IC50 of 0.0646 µM.

As for `Cc1ccc(-c2cccc(OC(=O)NC3CCCCC3)c2)cc1` [PL#37], under setting [2], the IC50 is 0.23 µM.

For `O=C(NC1CCCCC1)Oc1cccc(-c2cccc(Cc3ccccc3)c2)c1` [Compound 3o], the IC50 is 1.86 µM under setting [3] and 1.86 µM under setting [4].

For the molecule `O=C(Nc1ccc(Cl)cc1)NC1CCCCC1` [PL#21], the IC50 under setting [2] is over 30 µM.

For `CNC(=O)Oc1ccc2c(c1)[C@@]1(C)CCN(C)[C@H]1N2C` [PL#16, (−)-Physostigmine sulfate, reference compound], the IC50 reads like this: (Table 3, read-out: Amidohydrolase IC50) over 30 µM; under setting [2], over 30 µM.

With `O=C(NC1CCCCC1)Oc1cccc(-c2ccc(F)cc2)c1` [PL#41], the IC50 under setting [2] worked out at 0.09 µM.

For `Cc1cccc(-c2cccc(OC(=O)NC3CCCCC3)c2)c1` [PL#43], the IC50 under setting [2] worked out at 0.1 µM.

Turning to `O=C(NC1CCCCC1)Oc1cccc(-c2ccc(C(F)(F)F)cc2)c1` [Compound 3a], for the setting “IC50 (nM) ± S.E.M.”, the IC50 was 1.59 µM.

For `N#Cc1cccc(-c2cccc(OC(=O)NC3CCCCC3)c2)c1` [Compound 3t], the IC50 under setting [3] was found to be 0.0339 ± 0.007 µM and the IC50 under setting [4] is 0.0339 µM.

On to `Cc1ccc(OC(=O)NC2CCCCC2)cc1-c1ccccc1` [PL#48], for which, under setting [2], the IC50 stood at 0.2 µM.

On to `O=C(NC1CCCCC1)Oc1cccc(-c2cccc(OC(=O)NC3CCCCC3)c2)c1` [Compound 3l], for which the IC50 was 0.361 ± 0.137 µM under setting [3] and 0.363 µM under setting [4].

As for `Cc1cccc(NC(=O)OC2CCCCC2)c1` [PL#57], the IC50 under setting [2] was 0.8 µM.
